Data taken from the supplement of paper PMC12463676, “Small-molecule dissolution of stress granules by redox modulation benefits ALS models” (Nature Chemical Biology, 2025).

Legend:
lipoamide = compound: NC(=O)CCCCC1CCSS1 [lipoamide]; test: thermal stability z-score vs DMSO; higher = more thermally stabilized by treatment; conditions: HeLa, lipoamide concentration 100 µM
Protocol: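 Cellular thermal proteome profiling in HeLa cells. Cells were treated with 100 µM lipoamide for 1 h, with or without 1 mM arsenate for a further 1 h, then heated to ten temperatures (37-66.3 °C), and soluble protein was quantified by TMT mass spectrometry relative to 0.1% DMSO controls. The thermal stability score (sum of log2 fold changes minus the abundance score) was transformed to a z-score; mean of n = 3 experiments.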

potassium arsenate = compound: O=[As]([O-])(O)O.[K+] [potassium arsenate]; test: as above; conditions: HeLa; arsenate concentration 1 mM
Protocol: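 Cellular thermal proteome profiling in HeLa cells treated with 1 mM arsenate for 1 h (DMSO pretreatment), heated to ten temperatures (37-66.3 °C). Soluble protein was quantified by TMT mass spectrometry relative to DMSO controls; the thermal stability score was transformed to a z-score; mean of n = 3 experiments.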

[1] = arsenate co-treatment: 1 mM arsenate 1 h
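Note: each temperature applied for 3 min, abundance score taken as mean log2 fold change at the two lowest temperatures, z-score obtained by mean subtraction and division by SD.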

Sequence of UniProt Q9BWU0 (Q9BWU0 whole entry): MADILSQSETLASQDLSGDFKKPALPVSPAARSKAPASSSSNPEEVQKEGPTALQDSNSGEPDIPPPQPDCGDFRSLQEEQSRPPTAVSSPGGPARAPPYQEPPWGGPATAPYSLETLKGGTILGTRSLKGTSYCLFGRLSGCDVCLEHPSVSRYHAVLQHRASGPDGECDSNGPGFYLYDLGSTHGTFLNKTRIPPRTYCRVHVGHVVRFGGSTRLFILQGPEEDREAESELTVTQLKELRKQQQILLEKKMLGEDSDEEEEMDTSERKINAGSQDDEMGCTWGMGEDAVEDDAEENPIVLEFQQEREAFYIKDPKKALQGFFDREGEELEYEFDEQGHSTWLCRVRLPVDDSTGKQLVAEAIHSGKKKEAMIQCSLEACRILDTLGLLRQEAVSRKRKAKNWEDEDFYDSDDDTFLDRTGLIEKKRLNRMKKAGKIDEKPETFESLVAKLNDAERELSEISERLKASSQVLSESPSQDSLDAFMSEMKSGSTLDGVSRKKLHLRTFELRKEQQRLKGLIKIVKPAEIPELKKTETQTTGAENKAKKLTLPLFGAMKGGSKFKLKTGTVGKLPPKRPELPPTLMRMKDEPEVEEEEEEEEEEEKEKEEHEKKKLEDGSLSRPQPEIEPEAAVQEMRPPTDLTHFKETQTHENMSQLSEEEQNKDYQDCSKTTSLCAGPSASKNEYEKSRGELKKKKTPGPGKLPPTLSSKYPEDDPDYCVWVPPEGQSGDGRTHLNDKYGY
Sequence of UniProt Q86SZ2 (Q86SZ2 whole entry): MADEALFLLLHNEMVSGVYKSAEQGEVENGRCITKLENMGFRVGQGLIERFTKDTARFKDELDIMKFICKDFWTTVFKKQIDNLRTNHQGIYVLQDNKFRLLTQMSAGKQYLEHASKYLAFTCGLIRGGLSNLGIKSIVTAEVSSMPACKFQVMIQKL
Sequence of UniProt O15056 (O15056 whole entry): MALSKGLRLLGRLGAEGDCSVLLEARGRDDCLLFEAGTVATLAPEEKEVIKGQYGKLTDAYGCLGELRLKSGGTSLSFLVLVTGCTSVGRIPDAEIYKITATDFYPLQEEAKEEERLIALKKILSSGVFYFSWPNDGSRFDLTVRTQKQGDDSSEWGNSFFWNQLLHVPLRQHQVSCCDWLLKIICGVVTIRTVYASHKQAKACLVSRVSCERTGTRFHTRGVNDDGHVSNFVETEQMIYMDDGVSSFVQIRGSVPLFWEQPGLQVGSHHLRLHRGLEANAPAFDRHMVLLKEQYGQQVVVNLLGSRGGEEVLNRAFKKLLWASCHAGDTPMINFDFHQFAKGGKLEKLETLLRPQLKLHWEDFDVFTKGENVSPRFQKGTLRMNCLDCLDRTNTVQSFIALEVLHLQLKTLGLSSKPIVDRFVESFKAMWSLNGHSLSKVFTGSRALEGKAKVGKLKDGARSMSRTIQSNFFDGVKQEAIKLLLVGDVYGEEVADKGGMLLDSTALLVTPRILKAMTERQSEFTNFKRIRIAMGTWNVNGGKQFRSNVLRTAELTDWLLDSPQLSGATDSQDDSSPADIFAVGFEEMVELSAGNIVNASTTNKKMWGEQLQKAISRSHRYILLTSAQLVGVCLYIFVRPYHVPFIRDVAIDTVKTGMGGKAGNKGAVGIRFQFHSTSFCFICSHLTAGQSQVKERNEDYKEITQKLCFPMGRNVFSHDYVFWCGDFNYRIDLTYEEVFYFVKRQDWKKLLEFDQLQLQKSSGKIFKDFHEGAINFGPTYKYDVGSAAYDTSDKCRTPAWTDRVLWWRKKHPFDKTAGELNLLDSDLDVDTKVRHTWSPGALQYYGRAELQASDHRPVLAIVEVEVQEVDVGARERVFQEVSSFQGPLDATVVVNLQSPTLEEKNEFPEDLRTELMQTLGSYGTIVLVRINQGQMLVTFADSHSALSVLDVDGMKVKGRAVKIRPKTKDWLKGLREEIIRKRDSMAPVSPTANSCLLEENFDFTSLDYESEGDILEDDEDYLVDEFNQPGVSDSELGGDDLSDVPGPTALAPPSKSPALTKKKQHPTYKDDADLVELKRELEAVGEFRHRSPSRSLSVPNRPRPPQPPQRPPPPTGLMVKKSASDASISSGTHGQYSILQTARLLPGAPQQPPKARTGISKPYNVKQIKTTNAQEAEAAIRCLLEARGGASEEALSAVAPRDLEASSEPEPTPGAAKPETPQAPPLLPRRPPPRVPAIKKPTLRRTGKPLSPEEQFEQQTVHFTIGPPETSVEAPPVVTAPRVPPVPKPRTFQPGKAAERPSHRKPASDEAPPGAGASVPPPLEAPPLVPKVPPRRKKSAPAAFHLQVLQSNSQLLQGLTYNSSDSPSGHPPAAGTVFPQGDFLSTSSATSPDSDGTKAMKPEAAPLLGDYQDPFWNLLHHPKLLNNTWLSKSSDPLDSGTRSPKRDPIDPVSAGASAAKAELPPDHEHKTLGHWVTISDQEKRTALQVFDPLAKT
Sequence of UniProt Q9NZ52 (Q9NZ52 whole entry): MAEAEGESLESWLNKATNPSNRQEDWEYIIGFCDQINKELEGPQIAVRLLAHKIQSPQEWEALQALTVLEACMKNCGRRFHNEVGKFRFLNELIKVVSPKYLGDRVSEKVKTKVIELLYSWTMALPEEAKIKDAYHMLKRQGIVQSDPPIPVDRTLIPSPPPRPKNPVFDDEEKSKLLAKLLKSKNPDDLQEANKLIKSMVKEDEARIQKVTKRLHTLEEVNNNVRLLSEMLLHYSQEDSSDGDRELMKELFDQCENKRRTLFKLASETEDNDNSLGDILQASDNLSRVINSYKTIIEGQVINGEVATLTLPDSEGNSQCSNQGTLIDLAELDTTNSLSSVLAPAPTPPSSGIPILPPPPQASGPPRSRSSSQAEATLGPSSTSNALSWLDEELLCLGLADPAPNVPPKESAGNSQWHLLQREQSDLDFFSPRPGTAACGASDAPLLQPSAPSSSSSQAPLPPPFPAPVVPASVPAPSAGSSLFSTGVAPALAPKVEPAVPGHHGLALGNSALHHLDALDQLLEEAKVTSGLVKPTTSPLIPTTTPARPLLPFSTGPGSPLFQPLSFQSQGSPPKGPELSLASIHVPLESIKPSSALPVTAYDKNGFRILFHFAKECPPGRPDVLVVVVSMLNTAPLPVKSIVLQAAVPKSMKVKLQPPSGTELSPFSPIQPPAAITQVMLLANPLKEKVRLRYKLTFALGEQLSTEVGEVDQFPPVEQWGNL
Sequence of UniProt Q6PCB6 (Q6PCB6 whole entry): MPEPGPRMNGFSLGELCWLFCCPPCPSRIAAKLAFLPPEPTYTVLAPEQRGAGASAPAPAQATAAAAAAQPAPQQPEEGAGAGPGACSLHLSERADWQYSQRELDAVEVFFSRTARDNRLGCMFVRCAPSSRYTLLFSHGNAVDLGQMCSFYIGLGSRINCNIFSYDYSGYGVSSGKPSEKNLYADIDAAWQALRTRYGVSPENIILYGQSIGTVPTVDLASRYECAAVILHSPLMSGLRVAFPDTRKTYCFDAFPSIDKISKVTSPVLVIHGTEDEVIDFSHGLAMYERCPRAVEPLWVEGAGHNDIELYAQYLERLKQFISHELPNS
Sequence of UniProt Q96SI1 (Q96SI1 whole entry): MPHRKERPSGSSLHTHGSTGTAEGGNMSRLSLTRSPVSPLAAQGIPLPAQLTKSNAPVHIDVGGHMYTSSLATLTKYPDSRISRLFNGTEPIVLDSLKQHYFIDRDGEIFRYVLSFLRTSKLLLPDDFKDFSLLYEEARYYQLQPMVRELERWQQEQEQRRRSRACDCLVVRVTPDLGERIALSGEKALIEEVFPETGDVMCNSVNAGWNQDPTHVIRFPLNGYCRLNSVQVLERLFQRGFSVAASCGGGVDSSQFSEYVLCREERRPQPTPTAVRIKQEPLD
Sequence of UniProt Q14684 (Q14684 whole entry): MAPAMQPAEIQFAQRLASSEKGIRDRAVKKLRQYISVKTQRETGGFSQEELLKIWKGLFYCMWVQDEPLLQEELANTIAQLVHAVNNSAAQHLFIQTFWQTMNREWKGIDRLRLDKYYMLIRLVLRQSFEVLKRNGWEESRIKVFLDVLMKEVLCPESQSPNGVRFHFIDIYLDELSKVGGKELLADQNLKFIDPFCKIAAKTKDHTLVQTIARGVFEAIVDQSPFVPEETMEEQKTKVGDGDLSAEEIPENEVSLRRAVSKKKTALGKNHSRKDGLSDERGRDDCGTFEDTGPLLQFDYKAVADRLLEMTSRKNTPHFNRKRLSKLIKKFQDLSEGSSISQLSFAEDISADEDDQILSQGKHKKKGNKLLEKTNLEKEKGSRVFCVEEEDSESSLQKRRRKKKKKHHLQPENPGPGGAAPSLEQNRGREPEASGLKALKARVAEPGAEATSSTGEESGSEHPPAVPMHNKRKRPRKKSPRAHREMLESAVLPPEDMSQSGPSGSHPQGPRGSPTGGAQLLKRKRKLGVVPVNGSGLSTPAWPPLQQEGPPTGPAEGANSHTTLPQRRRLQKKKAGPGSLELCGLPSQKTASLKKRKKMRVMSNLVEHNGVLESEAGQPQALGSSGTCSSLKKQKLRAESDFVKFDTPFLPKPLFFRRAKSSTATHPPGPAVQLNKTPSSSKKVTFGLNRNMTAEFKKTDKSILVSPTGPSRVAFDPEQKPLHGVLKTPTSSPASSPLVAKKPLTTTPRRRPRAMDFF
Sequence of UniProt Q99986 (Q99986 whole entry): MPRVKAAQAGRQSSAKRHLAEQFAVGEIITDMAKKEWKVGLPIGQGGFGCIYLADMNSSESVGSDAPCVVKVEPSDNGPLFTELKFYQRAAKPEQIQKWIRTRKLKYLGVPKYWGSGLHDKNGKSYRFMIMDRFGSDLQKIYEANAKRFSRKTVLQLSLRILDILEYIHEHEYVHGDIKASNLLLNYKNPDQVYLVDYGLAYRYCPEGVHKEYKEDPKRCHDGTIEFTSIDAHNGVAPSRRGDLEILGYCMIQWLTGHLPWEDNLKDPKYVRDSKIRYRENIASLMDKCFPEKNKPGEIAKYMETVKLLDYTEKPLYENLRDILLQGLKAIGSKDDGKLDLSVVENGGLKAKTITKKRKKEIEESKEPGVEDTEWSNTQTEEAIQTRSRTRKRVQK
Sequence of UniProt O75379 (O75379 whole entry): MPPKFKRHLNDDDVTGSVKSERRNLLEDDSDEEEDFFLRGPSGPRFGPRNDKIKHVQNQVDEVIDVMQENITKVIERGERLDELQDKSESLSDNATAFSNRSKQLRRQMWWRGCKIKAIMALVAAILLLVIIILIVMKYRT

Target	thermal stability z-score (lipoamide; [1])	thermal stability z-score (lipoamide; arsenate co-treatment: none)	thermal stability z-score (potassium arsenate)
PCNP (UniProt Q8WW12)	0.549	0.442	0.289
CHTOP (UniProt Q9Y3Y2)	1.86	0.726	0.73
VRK1 (UniProt Q99986)	0.263	0.423	-0.267
SMARCAL1 (UniProt Q9NZC9)	0.0881	-0.0213	-0.0552
RUFY1 (UniProt Q96T51)	-0.702	-0.00916	0.39
ATP6V1D (UniProt Q9Y5K8)	0.546	0.0685	-0.425
RRP1 (UniProt P56182)	0.0258	0.131	0.671
GGA3 (UniProt Q9NZ52)	-0.3	0.0568	-0.298
SYNJ2 (UniProt O15056)	0.0806	0.0587	-0.0134
EVI5 (UniProt O60447)	-0.272	0.322	0.704
ZBTB10 (UniProt Q96DT7)	0.00974	-0.093	-0.307
HAUS3 (UniProt Q68CZ6)	-0.112	-0.176	-0.102
CHD3 (UniProt Q12873)	0.00382	-0.131	-0.306
TOP2B (UniProt Q02880)	0.61	0.212	-0.788
NAV2 (UniProt Q8IVL1)	0.0134	-0.0355	-0.055
TRMT10A (UniProt Q8TBZ6)	-0.927	-0.427	0.266
TRAPPC6B (UniProt Q86SZ2)	-0.428	-1.19	-0.511
KCTD15 (UniProt Q96SI1)	-0.377	-0.174	-0.89
ATL3 (UniProt Q6DD88)	-0.399	-0.0961	0.731
PURA (UniProt Q00577)	0.195	-0.028	-0.0389
RRP1B (UniProt Q14684)	0.131	0.133	-0.0634
CWC22 (UniProt Q9HCG8)	-0.0873	0.0387	-0.263
ROBO1 (UniProt Q9Y6N7)	0.154	0.0459	-0.29
EFEMP1 (UniProt Q12805)	-3.26	-2.96	0.134
AP1G2 (UniProt O75843)	0.17	0.114	0.167
CUL4B (UniProt Q13620)	0.0797	-0.0817	-0.051
TRMT5 (UniProt Q32P41)	-0.124	0.0028	-0.112
UHRF1 (UniProt Q96T88)	0.0776	0.0619	-0.766

Target	thermal stability z-score (lipoamide; [1])	thermal stability z-score (lipoamide; arsenate co-treatment: none)	thermal stability z-score (potassium arsenate)
RBX1 (UniProt P62877)	-0.311	0.0681	0.163
TUBGCP2 (UniProt Q9BSJ2)	-0.0736	-0.0416	0.27
NAXE (UniProt Q8NCW5)	0.137	0.266	-0.422
VAMP4 (UniProt O75379)	1.45	1.92	0.236
POLG2 (UniProt Q9UHN1)	0.00241	-0.266	-0.833
ABHD17C (UniProt Q6PCB6)	-0.923	-0.152	-0.29
MAP7 (UniProt Q14244)	0.478	-0.183	-0.779
LRP8 (UniProt Q14114)	-0.785	-0.422	-0.43
BUB1 (UniProt O43683)	-0.0469	0.0303	0.029
SCP2 (UniProt P22307)	0.374	0.0992	-0.257
SLC4A1AP (UniProt Q9BWU0)	0.445	0.341	-1.27
HS1BP3 (UniProt Q53T59)	-0.135	0.097	-0.105
DOHH (UniProt Q9BU89)	-0.0847	0.18	0.721
SNAP29 (UniProt O95721)	-0.254	0.547	0.554
CLCN3 (UniProt P51790)	-0.368	-0.225	-0.374
ECE1 (UniProt P42892)	-0.298	-0.225	-0.191
STOM (UniProt P27105)	-0.123	0.354	0.0471
PPP1R37 (UniProt O75864)	-0.153	-0.186	-0.0199
GALT (UniProt P07902)	-0.362	-0.325	0.174
U2AF1L5|U2AF1	-0.511	-0.0589	-1.4
FBN1 (UniProt P35555)	-2.81	-2.71	0.276
APC (UniProt P25054)	0.728	0.273	0.816
JMJD4 (UniProt Q9H9V9)	0.073	0.027	0.0203
MP68 (UniProt P56378)	0.962	0.921	1.15
NAT6 (UniProt Q93015)	0.0786	-0.349	-0.338
PPP2R5E (UniProt Q16537)	0.219	0.285	0.682
ELAC2 (UniProt Q9BQ52)	-0.243	-0.21	-0.274
